Source: patent publication US11292801B2, “Calpain modulators and therapeutic uses thereof” (Blade Therapeutics, Inc., priority 2016, dated 2022)

Assays:
[1] = target: T1, Human Calpain 1/NS1 (Homo sapiens, UniProt P07384); test: Biochemical inhibition of calpain 1, continuous fluorescence (FRET substrate) assay; conditions: mean, read-out: Human Calpain 1/NS1 IC50 (nM)_MEAN
T1 sequence (P07384 1-714): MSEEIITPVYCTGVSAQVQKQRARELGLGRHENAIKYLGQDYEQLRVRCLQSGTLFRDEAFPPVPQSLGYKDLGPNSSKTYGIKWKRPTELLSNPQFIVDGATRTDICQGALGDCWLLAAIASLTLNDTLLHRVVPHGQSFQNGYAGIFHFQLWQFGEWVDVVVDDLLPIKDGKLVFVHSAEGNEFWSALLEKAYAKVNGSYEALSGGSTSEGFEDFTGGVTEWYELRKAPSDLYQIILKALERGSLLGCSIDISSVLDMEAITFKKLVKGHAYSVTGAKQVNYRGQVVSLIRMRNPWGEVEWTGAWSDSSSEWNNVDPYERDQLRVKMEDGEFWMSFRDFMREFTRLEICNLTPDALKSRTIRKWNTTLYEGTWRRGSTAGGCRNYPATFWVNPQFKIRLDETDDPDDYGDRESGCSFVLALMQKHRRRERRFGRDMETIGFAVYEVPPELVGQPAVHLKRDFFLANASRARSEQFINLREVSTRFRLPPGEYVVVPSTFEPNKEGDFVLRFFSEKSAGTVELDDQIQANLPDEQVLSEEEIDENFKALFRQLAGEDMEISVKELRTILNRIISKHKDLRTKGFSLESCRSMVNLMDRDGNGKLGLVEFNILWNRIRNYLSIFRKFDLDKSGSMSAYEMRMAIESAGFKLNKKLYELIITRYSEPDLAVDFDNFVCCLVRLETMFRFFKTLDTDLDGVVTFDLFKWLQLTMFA
T1 sequence (P04632 1-268 partner): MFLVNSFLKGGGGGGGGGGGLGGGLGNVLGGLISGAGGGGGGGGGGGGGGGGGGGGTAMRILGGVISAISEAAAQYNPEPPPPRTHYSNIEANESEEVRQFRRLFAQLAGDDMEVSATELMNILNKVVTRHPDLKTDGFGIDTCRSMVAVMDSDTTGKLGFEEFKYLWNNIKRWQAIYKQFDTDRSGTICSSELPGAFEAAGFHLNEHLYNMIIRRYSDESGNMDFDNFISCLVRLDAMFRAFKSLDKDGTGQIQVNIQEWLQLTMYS
Experimental: (§1) Calpain 1, 2, and 9 activity and inhibition thereof are assessed by means of a continuous fluorescence assay. The SensoLyte 520 Calpain substrate (Anaspec Inc) is optimized for detecting calpain activity. This substrate contains a novel internally quenched 5-FAM/QXL™ 520 FRET pair. Calpains 1, 2, and 9 cleave the FRET substrate into two separate fragments resulting in an increase of 5-FAM fluorescence that is proportional to calpain activity.
(§2) Assays are typically setup in black 384-well plates using automated liquid handling as follows. Calpain assay base buffer typically contains 50 mM Tris, pH˜7.5, 100 mM NaCl and 1 mM DTT. Inhibitors are serially diluted in DMSO and used to setup 2× mixtures with calpains in the aforementioned buffer. After incubation at ambient temperature (25C), the reaction is initiated by adding a 2× mix of the fluorescent peptide substrate and CaCl2) (required for in-situ calpain activation) in the same buffer. Reaction progress curve data are typically collected for 10 min using excitation/emission wavelengths of 490 nm/520 nm on SpectraMax i3× or the FLIPR-Tetra plate readers (Molecular Devices Inc). Reaction rates were calculated from progress curve slopes typically over 1-5 min. Dose response curves (rate vs. log inhibitor concentration) were typically fit to a 4-parameter logistic function to extract IC50 values.

[2] = target: T2, Human Calpain 9/NS1 (Homo sapiens, UniProt O14815); test: Biochemical inhibition of calpain 9, continuous fluorescence (FRET substrate) assay; conditions: mean, read-out: Human Calpain 9/NS1 IC50 (nM)_MEAN
T2 sequence (O14815 1-690): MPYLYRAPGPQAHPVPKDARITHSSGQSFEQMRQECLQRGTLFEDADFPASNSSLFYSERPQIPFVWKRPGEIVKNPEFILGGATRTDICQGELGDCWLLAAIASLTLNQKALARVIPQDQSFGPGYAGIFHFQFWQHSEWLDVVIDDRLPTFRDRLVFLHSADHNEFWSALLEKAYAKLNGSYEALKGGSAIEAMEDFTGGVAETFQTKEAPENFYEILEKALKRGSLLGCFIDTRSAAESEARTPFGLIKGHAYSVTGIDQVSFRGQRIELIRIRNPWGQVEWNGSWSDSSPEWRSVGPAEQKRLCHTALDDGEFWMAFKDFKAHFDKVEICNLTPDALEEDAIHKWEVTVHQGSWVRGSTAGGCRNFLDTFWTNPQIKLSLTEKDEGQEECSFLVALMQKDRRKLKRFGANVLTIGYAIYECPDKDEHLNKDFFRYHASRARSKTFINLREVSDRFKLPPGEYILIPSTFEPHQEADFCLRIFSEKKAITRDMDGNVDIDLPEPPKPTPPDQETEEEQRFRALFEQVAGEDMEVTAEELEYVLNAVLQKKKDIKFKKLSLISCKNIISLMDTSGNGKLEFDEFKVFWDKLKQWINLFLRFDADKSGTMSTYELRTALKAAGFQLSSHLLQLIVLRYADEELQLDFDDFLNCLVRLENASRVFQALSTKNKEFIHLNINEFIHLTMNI
T2 sequence (P04632 1-268 partner): T1 sequence (P04632 1-268 partner)
Experimental: as §1, §2

[3] = target: T3, Human Calpain 2/NS1 (Homo sapiens, UniProt P17655); test: Biochemical inhibition of calpain 2, continuous fluorescence (FRET substrate) assay; conditions: mean, read-out: Human Calpain 2/NS1 IC50 (nM)_MEAN
T3 sequence (P17655 1-700): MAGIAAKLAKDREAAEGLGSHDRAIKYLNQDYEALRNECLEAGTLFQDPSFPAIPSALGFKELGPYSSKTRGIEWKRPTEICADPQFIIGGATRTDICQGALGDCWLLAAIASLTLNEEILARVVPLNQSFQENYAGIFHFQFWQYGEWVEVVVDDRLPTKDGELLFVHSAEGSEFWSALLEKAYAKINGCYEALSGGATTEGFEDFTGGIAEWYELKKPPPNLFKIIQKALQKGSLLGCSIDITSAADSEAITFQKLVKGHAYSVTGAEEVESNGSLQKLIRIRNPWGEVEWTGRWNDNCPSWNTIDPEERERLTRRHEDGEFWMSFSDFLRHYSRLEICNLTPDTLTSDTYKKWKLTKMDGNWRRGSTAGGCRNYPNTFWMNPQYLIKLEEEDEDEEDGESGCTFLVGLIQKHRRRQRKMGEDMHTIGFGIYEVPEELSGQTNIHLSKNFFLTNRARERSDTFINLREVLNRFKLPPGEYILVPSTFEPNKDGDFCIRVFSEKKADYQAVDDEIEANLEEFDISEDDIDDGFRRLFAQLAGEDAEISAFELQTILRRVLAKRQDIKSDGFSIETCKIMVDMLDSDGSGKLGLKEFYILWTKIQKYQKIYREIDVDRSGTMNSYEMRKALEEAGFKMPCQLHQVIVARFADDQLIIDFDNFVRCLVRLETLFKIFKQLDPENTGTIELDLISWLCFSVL
T3 sequence (P04632 1-268 partner): T1 sequence (P04632 1-268 partner)
Experimental: as §1, §2

Compound | IC50 [1] [nM] | IC50 [2] [nM] | IC50 [3] [nM]
Cn1cc2c(n1)-c1cccc(c1)OCCCCC[C@@H](C(=O)C(N)=O)NC2=O [Compound 142, (S)-2-(1′-methyl-11-oxo-1^1H-3-oxa-10-aza-1(3,4)-pyrazola-2(1,3)-benzenacycloundecaphane-9-yl)-2-oxoacetamide] | > 10000 | < 3000 | > 10000
C#CCNC(=O)C(=O)C1CCCCOCCOCc2ccccc2C(=O)N1 (centres unmarked) [Compound 85, 2-Oxo-2-(12-oxo-1,3,4,6,7,8,9,10,11,12-decahydrobenzo[f][1,4]dioxa[9]aza-cyclotetradecin-10-yl)-N-(prop-2-yn-1-yl)acetamide] | > 10000 | 3000 to 10000 | > 10000
Cc1cccc(C)c1NC(=O)C(=O)[C@@H]1CCCCOCCOCc2ccccc2C(=O)N1 [Compound 54, (S)—N-(2,6-dimethylphenyl)-2-oxo-2-(12-oxo-1,3,4,6,7,8,9,10,11,12-decahydrobenzo[f][1,4]dioxa[9]azacyclotetradecin-10-yl)acetamide] | > 10000 | > 10000 | > 10000
O=C[C@@H]1CCCCCCOCc2ccccc2C(=O)N1 [Compound 42, (S)-11-Oxo-1,3,4,5,6,7,8,9,10,11-decahydrobenzo[c][1]oxa[6]azacyclotridecine-9-carbaldehyde] | > 10000 | < 3000 | < 3000
O=C(NC1CCCC1)C(=O)C1CCCCOCCOCc2ccccc2C(=O)N1 (centres unmarked) [Compound 109, N-cyclopentyl-2-oxo-2-(12-oxo-1,3,4,6,7,8,9,10,11,12-decahydrobenzo[f][1,4]dioxa[9]azacyclotetradecin-10-yl)acetamide] | > 10000 |  | > 10000
O=C[C@@H]1C/C=C/CCCCCCCc2ccccc2C(=O)N1 [Compound 23, (S,E)-1-Oxo-2,3,4,7,8,9,10,11,12,13-decahydro-1h-benzo[c][1]aza-cyclopentadecine-3-carbaldehyde] | < 3000 | < 3000 | < 3000
O=C(NCCc1ccc(Cl)cc1)C(=O)[C@@H]1C/C=C/COCCOCc2ccccc2C(=O)N1 [Compound 78, (S,E)-N-(4-chlorophenethyl)-2-oxo-2-(12-oxo-1,3,4,6,9,10,11,12-octahydrobenzo[f][1,4]dioxa[9]azacyclotetradecin-10-yl)acetamide] | 3000 to 10000 | < 3000 | 3000 to 10000
O=C(NCc1ccc2c(c1)OCO2)C(=O)C1CCCCOCCOCc2ccccc2C(=O)N1 (centres unmarked) [Compound 81, N-(benzo[d][1,3]dioxol-5-ylmethyl)-2-oxo-2-(12-oxo-1,3,4,6,7,8,9,10,11,12-decahydrobenzo[f][1,4]dioxa[9]azacyclotetradecin-10-yl)acetamide] | > 10000 | < 3000 | 3000 to 10000
O=C[C@@H]1CC=CCCOc2cccc(c2)-c2ncccc2C(=O)N1 [Compound 37, (S)-11-Oxo-3-oxa-10-aza-1(2,3)-pyridina-2(1,3)-benzenacycloundecaphan-6-ene-9-carbaldehyde] | < 3000 | < 3000 | < 3000
Cc1ccc(Cl)cc1CNC(=O)C(=O)C1CCCCOCCOCc2ccccc2C(=O)N1 (centres unmarked) [Compound 108, N-(5-chloro-2-methylbenzyl)-2-oxo-2-(12-oxo-1,3,4,6,7,8,9,10,11,12-decahydrobenzo[f][1,4]dioxa[9]azacyclotetradecin-10-yl)acetamide] | > 10000 | < 3000 | 3000 to 10000
NC(=O)C(=O)[C@@H]1CCCCCOc2ccc(F)c(c2)-c2ccccc2C(=O)N1 [Compound 148, (S)-2-(2^6-fluoro-11-oxo-3-oxa-10-aza-1(1,2),2(1,3)-dibenzena-cycloundecaphane-9-yl)-2-oxoacetamide] | < 3000 | < 3000 | < 3000
CC(C)(NC(=O)C(=O)C1CCCCOCCOCc2ccccc2C(=O)N1)c1cccnc1 (centres unmarked) [Compound 124, 2-Oxo-2-(12-oxo-1,3,4,6,7,8,9,10,11,12-decahydrobenzo[f][1,4]dioxa[9]azacyclotetradecin-10-yl)-N-(2-(pyridin-3-yl)propan-2-yl)acetamide] | > 10000 | > 10000 | > 10000
COc1ccc(CCNC(=O)C(=O)C2CCCCOCCOCc3ccccc3C(=O)N2)cc1OC (centres unmarked) [Compound 123, N-(3,4-dimethoxyphenethyl)-2-oxo-2-(12-oxo-1,3,4,6,7,8,9,10,11,12-decahydrobenzo[f][1,4]dioxa[9]azacyclotetradecin-10-yl)acetamide] | > 10000 | 3000 to 10000 | > 10000
O=C[C@@H]1CC=CCCCCCc2ccccc2C(=O)N1 [Compound 14, (S)-1-Oxo-2,3,4,7,8,9,10,11-octahydro-1h-benzo[c][1]aza-cyclotridecine-3-carbaldehyde] | 3000 to 10000 | < 3000 | < 3000
O=C(NCc1ccc(F)cc1)C(=O)C1CCCCOCCOCc2ccccc2C(=O)N1 (centres unmarked) [Compound 98, N-(4-fluorobenzyl)-2-oxo-2-(12-oxo-1,3,4,6,7,8,9,10,11,12-decahydrobenzo[f][1,4]dioxa[9]azacyclotetradecin-10-yl)acetamide] | > 10000 | < 3000 | < 3000
O=C[C@@H]1C/C=C/COCCOCc2ccccc2C(=O)N1 [Compound 2, (S,E)-12-Oxo-1,3,4,6,9,10,11,12-octahydrobenzo[f][1,4]dioxa[9]azacyclotetradecine-10-carbaldehyde] | > 10000 | 3000 to 10000 | > 10000
